How the values were obtained:
[1] = target: T1, Low molecular weight phosphotyrosine protein phosphatase (Mus musculus, UniProt Q9D358); test: Competitive inhibition of mouse LMW-PTP expressed in Escherichia coli using pNPP substrate by Dixon plot
T1 sequence (Q9D358 whole entry): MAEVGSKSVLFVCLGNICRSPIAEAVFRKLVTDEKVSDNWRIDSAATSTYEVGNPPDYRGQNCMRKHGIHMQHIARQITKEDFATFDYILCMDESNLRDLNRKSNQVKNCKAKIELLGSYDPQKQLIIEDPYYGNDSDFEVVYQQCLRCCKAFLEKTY

[2] = Inhibition of bovine heart acid phosphatase; set-up: species or system Bos taurus
[3] = target: Alkaline phosphatase, placental type (Homo sapiens, UniProt P05187); test: Inhibition of human placental alkaline phosphatase using p-nitrophenyl phosphate substrate
Alkaline phosphatase, placental type, sequence (P05187 whole entry): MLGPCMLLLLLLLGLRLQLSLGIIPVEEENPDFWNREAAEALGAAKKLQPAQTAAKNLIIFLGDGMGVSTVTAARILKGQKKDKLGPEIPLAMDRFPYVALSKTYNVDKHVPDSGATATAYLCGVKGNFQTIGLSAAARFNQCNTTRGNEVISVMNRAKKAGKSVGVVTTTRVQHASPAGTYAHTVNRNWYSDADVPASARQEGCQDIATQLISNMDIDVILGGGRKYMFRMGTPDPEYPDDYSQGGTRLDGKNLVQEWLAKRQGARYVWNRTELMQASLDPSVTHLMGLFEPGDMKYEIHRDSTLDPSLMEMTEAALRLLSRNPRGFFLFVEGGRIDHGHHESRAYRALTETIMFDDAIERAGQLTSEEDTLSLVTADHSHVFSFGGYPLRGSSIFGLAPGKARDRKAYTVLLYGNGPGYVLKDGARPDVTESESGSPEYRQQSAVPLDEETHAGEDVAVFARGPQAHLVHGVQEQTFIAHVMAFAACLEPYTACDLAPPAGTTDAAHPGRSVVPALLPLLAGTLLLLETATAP

[4] = target: T2, Tyrosine-protein phosphatase non-receptor type 1 (Homo sapiens, UniProt P18031); test: Inhibition of PTP1B (unknown origin) using […] substrate
T2 sequence (P18031 whole entry): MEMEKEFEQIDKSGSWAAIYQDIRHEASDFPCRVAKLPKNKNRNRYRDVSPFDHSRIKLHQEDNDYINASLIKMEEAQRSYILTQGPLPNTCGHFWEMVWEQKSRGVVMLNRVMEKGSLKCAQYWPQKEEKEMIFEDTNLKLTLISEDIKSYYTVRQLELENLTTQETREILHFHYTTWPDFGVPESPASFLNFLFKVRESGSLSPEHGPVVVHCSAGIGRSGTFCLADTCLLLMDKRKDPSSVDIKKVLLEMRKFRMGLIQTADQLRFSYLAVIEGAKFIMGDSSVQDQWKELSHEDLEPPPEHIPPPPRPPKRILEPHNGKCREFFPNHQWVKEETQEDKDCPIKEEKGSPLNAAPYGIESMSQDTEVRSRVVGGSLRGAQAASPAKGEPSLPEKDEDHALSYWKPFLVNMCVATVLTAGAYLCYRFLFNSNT

[5] = target: T3, Ectonucleotide pyrophosphatase/phosphodiesterase family member 3 (Bos taurus, UniProt P15396); test: Inhibition of bovine intestinal 5'-nucleotide phosphodiesterase using 4-nitrophenyl phenylphosphonate substrate by spectrophotometry
T3 sequence (P15396 whole entry): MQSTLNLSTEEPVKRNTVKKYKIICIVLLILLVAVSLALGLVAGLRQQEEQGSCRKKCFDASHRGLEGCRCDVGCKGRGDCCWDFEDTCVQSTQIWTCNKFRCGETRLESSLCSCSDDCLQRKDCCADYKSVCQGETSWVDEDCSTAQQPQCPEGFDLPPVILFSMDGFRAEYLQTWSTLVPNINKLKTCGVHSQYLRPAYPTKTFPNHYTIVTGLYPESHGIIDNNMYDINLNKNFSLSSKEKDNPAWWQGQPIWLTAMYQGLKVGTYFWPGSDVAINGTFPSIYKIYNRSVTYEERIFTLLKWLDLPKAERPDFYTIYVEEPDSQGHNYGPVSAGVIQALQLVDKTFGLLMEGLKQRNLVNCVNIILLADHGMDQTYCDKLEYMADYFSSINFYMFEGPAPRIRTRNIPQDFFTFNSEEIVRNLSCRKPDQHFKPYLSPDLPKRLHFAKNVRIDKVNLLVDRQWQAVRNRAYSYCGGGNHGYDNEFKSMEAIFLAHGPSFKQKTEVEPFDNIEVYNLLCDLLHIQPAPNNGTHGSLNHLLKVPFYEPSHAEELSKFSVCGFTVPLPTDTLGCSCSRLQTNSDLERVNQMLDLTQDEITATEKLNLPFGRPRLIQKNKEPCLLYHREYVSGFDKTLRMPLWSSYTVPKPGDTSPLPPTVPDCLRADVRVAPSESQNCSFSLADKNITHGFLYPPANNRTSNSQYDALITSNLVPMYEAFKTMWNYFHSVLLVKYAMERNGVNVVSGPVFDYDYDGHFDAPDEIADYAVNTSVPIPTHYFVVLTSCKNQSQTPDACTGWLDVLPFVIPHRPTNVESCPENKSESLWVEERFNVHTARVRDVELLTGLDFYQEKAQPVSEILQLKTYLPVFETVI

[6] = Inhibition of Yersinia-protein YopH using pNPP substrate

| Structure (SMILES) | Ki [1] | Ki [2] | Ki [3] | Ki [4] | Ki [5] | Ki [6] |
| --- | --- | --- | --- | --- | --- | --- |
| O=P(O)(O)Cc1ccc(CCl)cc1 | 47 µM |  |  |  |  |  |
| O=[N+]([O-])c1ccc(CP(=O)(O)O)cc1 | 124 µM |  |  |  |  |  |
| O=P(O)(O)Cc1ccccc1 [BENZYLPHOSPHONIC ACID] |  | 4600 µM | 580 µM | 3000 µM | 1400 µM | 5000 µM |
